Molecular target: T1, catalytic domain of human Bub1 (amino acids 704-1085) (Homo sapiens, UniProt O43683)
T1 construct: catalytic domain of human Bub1 (amino acids 704-1085); His6 (N); made in house; host or cells: insect cells (Hi5)
Assay: Bub1 kinase assay (TR-FRET)
Type: biochemical
Details: 10 μM ATP, avg, read-out: Bub1 avg (IC50 [mol/l])
Outline: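 Readout is the 665/620 nm TR-FRET ratio from anti-phosphoserine antibody, Eu-labelled anti-mouse IgG and streptavidin-XL665, scaled between no-enzyme and uninhibited controls. Reaction: 1 μM biotinylated peptide, 10 μM ATP, 60 min, 22 °C, after 15 min compound preincubation with His6-Bub1 (704-1085, insect-expressed, ~200 ng/ml).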

T1 sequence (O43683 704-1085): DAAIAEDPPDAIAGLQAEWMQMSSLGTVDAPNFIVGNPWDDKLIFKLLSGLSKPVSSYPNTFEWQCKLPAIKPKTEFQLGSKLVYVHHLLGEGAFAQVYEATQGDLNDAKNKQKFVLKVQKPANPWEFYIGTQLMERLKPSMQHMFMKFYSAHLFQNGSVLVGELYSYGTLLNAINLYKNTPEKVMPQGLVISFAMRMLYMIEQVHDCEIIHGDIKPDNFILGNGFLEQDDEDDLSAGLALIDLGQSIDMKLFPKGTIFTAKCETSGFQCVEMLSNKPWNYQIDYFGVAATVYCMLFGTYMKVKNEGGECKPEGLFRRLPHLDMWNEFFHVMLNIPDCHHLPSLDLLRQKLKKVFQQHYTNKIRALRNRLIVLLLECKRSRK

| IC50 | SMILES |
| --- | --- |
| > 20 µM | Cc1nsc(Nc2cnc(C(F)(F)F)cn2)c1C(=O)Nc1ccc(F)c(O[C@@H]2CCN(CCC(F)(F)F)C2)c1 [Example 414, N-(4-Fluoro-3-{[(3R)-1-(3,3,3-trifluoropropyl)pyrrolidin-3-yl]oxy}phenyl)-3-methyl-5-{[5-(trifluoromethyl)pyrazin-2-yl]amino}-1,2-thiazole-4-carboxamide] |
| > 20 µM | Cc1nsc(Nc2cnc(C(F)(F)F)cn2)c1C(=O)Nc1ccc(F)c(O[C@H]2CCN(CCC(F)(F)F)C2)c1 [Example 415, N-(4-Fluoro-3-{[(3S)-1-(3,3,3-trifluoropropyl)pyrrolidin-3-yl]oxy}phenyl)-3-methyl-5-{[5-(trifluoromethyl)pyrazin-2-yl]amino}-1,2-thiazole-4-carboxamide] |
| 1.8 µM | Cc1nsc(Nc2cnc(C(F)(F)F)cn2)c1C(=O)Nc1ccc(F)c(O[C@H]2CCN(CC(F)F)C2)c1 [Example 417, N-(3-{[(3S)-1-(2,2-Difluoroethyl)pyrrolidin-3-yl]oxy}-4-fluorophenyl)-3-methyl-5-{[5-(trifluoromethyl)pyrazin-2-yl]amino}-1,2-thiazole-4-carboxamide] |
| ≥ 20 µM | Cc1nsc(Nc2cnc(C(F)(F)F)cn2)c1C(=O)Nc1ccc(CCC2CCN(CCC(F)(F)F)CC2)nc1 [Example 420, 3-Methyl-5-{[5-(trifluoromethyl)pyrazin-2-yl]amino}-N-(6-{2-[1-(3,3,3-trifluoro-propyl)piperidin-4-yl]ethyl}pyridin-3-yl)-1,2-thiazole-4-carboxamide] |
| ≥ 20 µM | Cc1nsc(Nc2cnc(C(F)(F)F)cn2)c1C(=O)Nc1ccc(OCCNC(=O)C(F)(F)F)nc1 [Example 425, 3-Methyl-N-(6-{2-[(trifluoroacetyl)amino]ethoxy}pyridin-3-yl)-5-{[5-(trifluoro-methyl)pyrazin-2-yl]amino}-1,2-thiazole-4-carboxamide] |
| > 20 µM | Cc1nsc(Nc2cnc(C(F)(F)F)cn2)c1C(=O)Nc1ccc(OCCN(C)C(=O)OC(C)(C)C)nc1 [Example 429, tert-Butyl methyl{2-[(5-{[(3-methyl-5-{[5-(trifluoromethyl)pyrazin-2-yl]amino}-1,2-thiazol-4-yl)carbonyl]amino}pyridin-2-yl)oxy]ethyl}carbannate] |
| > 20 µM | Cc1nsc(Nc2cncc(C(F)(F)F)n2)c1C(=O)Nc1ccc(OCCN(C)C(=O)OC(C)(C)C)nc1 [Example 430, tert-Butyl methyl{2-[(5-{[(3-methyl-5-{[6-(trifluoromethyl)pyrazin-2-yl]amino}-1,2-thiazol-4-yl)carbonyl]amino}pyridin-2-yl)oxy]ethyl}carbannate] |
| > 20 µM | Cc1nsc(Nc2cnc(C(F)(F)F)cn2)c1C(=O)Nc1ccc(OC2CCNCC2)c(F)c1 [Example 431, N-[3-Fluoro-4-(piperidin-4-yloxy)phenyl]-3-methyl-5-{[5-(trifluoromethyl)pyrazin-2-yl]amino}-1,2-thiazole-4-carboxamide] |
| > 20 µM | CC(=O)Nc1ccc(NC(=O)c2c(C)nsc2Nc2ccc(C#N)cn2)cn1 [Example 435, N-(6-Acetamidopyridin-3-yl)-5-[(5-cyanopyridin-2-yl)amino]-3-methyl-1,2-thiazole-4-carboxamide] |

The remaining lines, values behind:

| SMILES | IC50 |
| --- | --- |
| Cc1nsc(Nc2cnc(C(F)(F)F)cn2)c1C(=O)Nc1ccc(F)c(O[C@H]2CCN(CC(F)(F)F)C2)c1 [Example 416, N-(4-Fluoro-3-{[(35)-1-(2,2,2-trifluoroethyl)pyrrolidin-3-yl]oxy}phenyl)-3-methyl-5-{[5-(trifluoromethyl)pyrazin-2-yl]amino}-1,2-thiazole-4-carboxamide] | > 20 µM |
| Cc1nsc(Nc2cnc(C(F)(F)F)cn2)c1C(=O)Nc1ccc(F)c(OC[C@H]2CCCN(CCC(F)(F)F)C2)c1 [Example 418, N-(4-Fluoro-3-{[(3S)-1-(3,3,3-trifluoropropyl)piperidin-3-yl]methoxy}phenyl)-3-methyl-5-{[5-(trifluoromethyl)pyrazin-2-yl]amino}-1,2-thiazole-4-carboxamide] | > 20 µM |
| Cc1nsc(Nc2cnc(C(F)(F)F)cn2)c1C(=O)Nc1ccc(F)c(OC[C@H]2CCCN(CC(F)(F)F)C2)c1 [Example 419, N-(4-Fluoro-3-{[(3S)-1-(2,2,2-trifluoroethyl)piperidin-3-yl]methoxy}phenyl)-3-methyl-5-{[5-(trifluoromethyl)pyrazin-2-yl]amino}-1,2-thiazole-4-carboxamide] | > 20 µM |
| CCN1CC[C@H](Oc2ccc(NC(=O)c3c(C)nsc3Nc3cnc(C(F)(F)F)cn3)cn2)[C@H](F)C1 [Example 424, N-(6-{[(3R,4S)-1-Ethyl-3-fluoropiperidin-4-yl]oxy}pyridin-3-yl)-3-methyl-5-{[5-(trifluoromethyl)pyrazin-2-yl]amino}-1,2-thiazole-4-carboxamide] | > 20 µM |
| Cc1nsc(Nc2cnc(C(F)(F)F)cn2)c1C(=O)Nc1ccc(F)c(OCCCNC(=O)C(F)(F)F)c1 [Example 427, N-(4-Fluoro-3-{3-[(trifluoroacetyl)amino]propoxy}phenyl)-3-methyl-5-{[5-(trifluoro-methyl)pyrazin-2-yl]amino}-1,2-thiazole-4-carboxamide] | ≥ 20 µM |
| Cc1nsc(Nc2cnc(C(F)(F)F)cn2)c1C(=O)Nc1ccc(OCCCNC(=O)C(F)(F)F)nc1 [Example 428, 3-Methyl-N-(6-{3-[(trifluoroacetyl)amino]propoxy}pyridin-3-yl)-5-{[5-(trifluoro-methyl)pyrazin-2-yl]amino}-1,2-thiazole-4-carboxamide] | > 20 µM |
| Cc1nsc(Nc2cnc3ccccc3n2)c1C(=O)Nc1cccc(NC(=O)C(F)(F)F)c1 [Example 432, 3-Methyl-5-(quinoxalin-2-ylamino)-N-{3-[(trifluoroacetyl)amino]phenyl}-1,2-thiazole-4-carboxamide] | > 20 µM |
| Cc1nsc(Nc2ccc(C#N)cn2)c1C(=O)Nc1ccc(Nc2ccc(F)c(F)c2)nc1 [Example 433, 5-[(5-Cyanopyridin-2-yl)amino]-N-{6-[(3,4-difluorophenyl)amino]pyridin-3-yl}-3-methyl-1,2-thiazole-4-carboxamide] | > 20 µM |
| Cc1nsc(Nc2cnc3ccccc3n2)c1C(=O)Nc1ccc(NCCN(C)C(=O)OC(C)(C)C)nc1 [Example 434, tert-Butyl methyl(2-{[5-({[3-methyl-5-(quinoxalin-2-ylamino)-1,2-thiazol-4-yl]carbonyl}amino)pyridin-2-yl]amino}ethyl)carbamate] | > 20 µM |
